Where a name gives a salt, the structure may show the parent alone. Residues, ends and D or L forms follow the SMILES beside them. *: point of attachment. Tfa = O=C(C(F)(F)F)* Bounds are passed on as bounds.

The record followed here is a melting point compilation (Tetko et al.; mined from patent text by program, amines drawn as free bases though some values may be those of a salt).

`Fc1cccnc1N1CCN(Cc2nc3ccccc3[nH]2)CC1` showed a melting point of 210 to 212 °C.
`CCn1ncc2c(NCC3CCCCC3)c3cc(OCC4CO4)ccc3nc21` (centres undefined) showed a melting point of 160 to 163 °C.
Under `CCc1c(Cl)nc(Cl)nc1N(C=O)c1cc(C)cc(C)c1` stands 124 to 125 °C; under `Cc1cc2c([N+](=O)[O-])cccc2c(Cl)n1`, 112 °C; under `CC(=O)Oc1c2c(c3ccccc3c1OC(C)=O)Nc1ccccc1S2`, 206 to 207 °C.
Regarding `O=C1CCN(c2c(F)cc([N+](=O)[O-])cc2F)CC1`, the melting point is 130 to 132 °C.
Under `CN1c2ccccc2S(=O)(=O)c2cc(C=Cc3ccc(-c4ccc(C=Cc5ccc6c(c5)S(=O)(=O)c5ccccc5N6C)cc4)cc3)ccc21` stands 360 °C.
Under `COc1ccc2c(c1)CCCC2(N)C(=O)O` (centres undefined) stands greater than 250 °C; under `CC(C)c1cc(C(C)(C)C)cc(C=O)c1O`, 128 to 130 °C.
Under `NCCC(O)(c1ccc(Cl)cc1)c1ccc(-c2ccc(Cl)cc2)cc1` (centres undefined) stands 131 to 132 °C; under `N#Cc1ccc2ccn(C3CCN(CCc4ccc(F)cc4)CC3)c2c1`, 131 to 132 °C.
For `FC(F)c1nc2ccccc2n1-c1nc(Nc2ccncn2)nc(N2CCOCC2)n1`, the melting point fell in the range of 233 to 235 °C.
Regarding `CCOC(=O)NC1N=C(c2ccc(Cl)cc2)c2oc3ccccc3c2NC1=O` (centres undefined), the melting point was greater than 260 °C.
For the molecule `CCOC(=O)CCc1n[nH]c(SCc2ccc(OCc3nc(-c4ccccc4)oc3C)cc2)n1`, the melting point was in the range of 114 to 115 °C.
Under `O=C(O)c1cn(C2CC2)c2c(Cl)c(N3CC4CCCC3CN4)c(F)cc2c1=O` (centres undefined) stands 217 to 220 °C; under `COc1c(C)c(C)c(OC)c(C(O)(c2cccnc2)C2CCCC2)c1C` (centres undefined), 126 to 127 °C.
Under `CNC1CN(c2nc3c(cc2F)c(=O)c(C(=O)O)cn3C2CC2)C1` stands 206 to 212 °C; under `O=C(O)CNC(=O)CNC(=O)C(F)(F)F` (Tfa-Gly-Gly-OH), 185 °C; under `CCOC(=O)c1c(N(CC)CC)c2ccc(C)nc2n(CC)c1=O`, 79 to 82 °C.
Turning to `N#CC(Cl)CC(Cl)(Cl)C=O` (centres undefined), the melting point is 49 to 50 °C.
Under `Cc1cc2c(cc1O)C(C1(c3ccccn3)CC1)N(C)CC2` (centres undefined) stands 218 °C.
Under `CS(=O)(=O)c1ccc(Oc2cc(OCc3ccccc3)c3[nH]c(C4=NCC(CCO)S4)cc3c2)cc1` (centres undefined) stands 97 to 98 °C.
Regarding `O=C(Nc1cccc(-c2ccnc3c(C(=O)c4cccs4)cnn23)c1)OCc1cccnc1`, the melting point is greater than 200 °C.
Under `O=C(O)COc1ccc(-c2ccc(-c3c(Cc4ccccc4)sc4ccccc34)cc2)cc1Br` stands 150 to 152 °C; under `CN1CCCC1=C(C#N)c1ccc(N)cc1`, 116 to 118 °C.
Under `Clc1ccc2c(c1)c(-c1ccccc1)c1n2CCNC1` stands 163 to 164 °C; under `COC(=O)c1ccc(/C=C(\C)c2ccc3c(c2)C(C)(C)CCN3C(C)=O)cc1`, 141 to 142 °C.
Under `C=Cc1cc(Cl)cc2[nH]c(=O)c(-c3ccccc3)c(O)c12` stands 240 to 244 °C.
`N#Cc1ccc(-c2ccco2)cn1` returned a melting point of 115 to 116 °C.
Under `COC(=O)c1nc(-c2csc3ccc(C)cc23)nc(N)c1Cl` stands 164 to 165 °C.
Under `O=C1NC(=O)C(c2cccc3ccccc23)O1` (centres undefined) stands 188 to 189 °C; under `COc1nc2nc(C(OC(C)=O)C3(Br)C(=O)N4C(C(=O)OCc5ccc([N+](=O)[O-])cc5)=CSC43)cn2c2c1CCC2` (centres undefined), 119 °C; under `O=[N+]([O-])c1ccc2c(c1)N(c1nnn[nH]1)CC2`, 262 to 270 °C.
On to `CC(C)(C)c1cc(CCc2ccccc2NC(=O)NC2CCN(Cc3ccccc3F)CC2)cc(C(C)(C)C)c1O`, for which the melting point fell in the range of 136 to 137 °C.

In general, melting point refers to the temperature, or range, at which the solid turns liquid.
